Laboratory results as given in ChEMBL document CHEMBL5620399, “Discovery of orally active sulfonylphenyl thieno[3,2-d]pyrimidine derivatives as GPR119 agonists” (Eur J Med Chem, 2023).
One block for each compound: values may come before it.

Assays:
[1] = molecular target: T1, Glucose-dependent insulinotropic receptor (Homo sapiens, UniProt Q8TDV5); assay: Agonist activity at human GPR119 expressed in CHO-K1 cells preincubated for 5 hrs followed by substrate addition measured after 2 hrs by fluorescence based assay; type: functional, cell-based
T1 sequence (Q8TDV5 whole entry): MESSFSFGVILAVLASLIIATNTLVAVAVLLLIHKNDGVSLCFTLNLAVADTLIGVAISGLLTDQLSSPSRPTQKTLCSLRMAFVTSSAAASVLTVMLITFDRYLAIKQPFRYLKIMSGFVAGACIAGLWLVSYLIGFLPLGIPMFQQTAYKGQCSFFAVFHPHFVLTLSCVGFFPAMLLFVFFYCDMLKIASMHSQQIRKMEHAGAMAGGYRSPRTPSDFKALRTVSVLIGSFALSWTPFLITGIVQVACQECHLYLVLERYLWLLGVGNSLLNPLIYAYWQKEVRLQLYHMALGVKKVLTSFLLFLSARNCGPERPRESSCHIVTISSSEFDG

[2] = Agonist activity at GPR119 in Golden hamster HIT-T15 cells assessed as increase in intracellular cAMP level incubated for 1 hr by fluorescence based assay; type: cell-based; details: Mesocricetus auratus, HIT-T15, 1 h
[3] = Cmax in ICR mouse at 10 mg/kg, po; type: ADME, organism-based; details: in vivo
[4] = Volume of distribution in ICR mouse at 1 mg/kg, iv; type: ADME, organism-based; details: in vivo
[5] = Cmax in Sprague-Dawley rat at 5 mg/kg, po; type: ADME, organism-based; details: in vivo
[6] = Half life in Sprague-Dawley rat at 5 mg/kg, po; type: ADME, organism-based; details: in vivo
Cytochrome P450 1A2 = molecular target: T2, Cytochrome P450 1A2 (Homo sapiens, UniProt P05177); assay: Inhibition of CYP1A2 (unknown origin) using 7-ethoxy-3-cyanocoumarin as substrate preincubated for 10 mins followed by addition of NADPH generating system measured after 30 mins by fluorescence based assay; type: ADME
T2 sequence (P05177 whole entry): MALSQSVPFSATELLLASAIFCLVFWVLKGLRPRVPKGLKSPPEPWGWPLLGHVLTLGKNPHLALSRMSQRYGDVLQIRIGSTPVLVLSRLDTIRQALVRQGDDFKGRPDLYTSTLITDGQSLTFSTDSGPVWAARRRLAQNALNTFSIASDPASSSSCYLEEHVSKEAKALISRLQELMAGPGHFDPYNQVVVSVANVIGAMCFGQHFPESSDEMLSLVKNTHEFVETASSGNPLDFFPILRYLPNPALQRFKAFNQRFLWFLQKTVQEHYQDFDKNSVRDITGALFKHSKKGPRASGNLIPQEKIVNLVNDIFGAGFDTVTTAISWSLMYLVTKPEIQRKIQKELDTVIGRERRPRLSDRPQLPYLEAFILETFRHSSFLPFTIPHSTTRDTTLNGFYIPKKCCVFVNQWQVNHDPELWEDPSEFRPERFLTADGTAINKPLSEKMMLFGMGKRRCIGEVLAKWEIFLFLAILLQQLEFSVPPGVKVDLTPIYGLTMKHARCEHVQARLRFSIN

[7] = AUC (0 to 24 hrs) in ICR mouse at 10 mg/kg, po; type: ADME, organism-based; details: in vivo
[8] = Tmax in Sprague-Dawley rat at 5 mg/kg, po; type: ADME, organism-based; details: in vivo
Cytochrome P450 2C19 = Cytochrome P450 2C19 (Homo sapiens, UniProt P33261); assay: Inhibition of CYP2C19 (unknown origin) using 7-ethoxy-3-cyanocoumarin as substrate preincubated for 10 mins followed by addition of NADPH generating system measured after 30 mins by fluorescence based assay; type: ADME
Cytochrome P450 2D6 = Cytochrome P450 2D6 (Homo sapiens, UniProt P10635); assay: Inhibition of CYP2D6 (unknown origin) using 3-[2-(N,N-diethyl-N-methylammonium)ethyl]-7-methoxy-4-methylcoumarin as substrate preincubated for 10 mins followed by addition of NADPH generating system measured after 30 mins by fluorescence based assay; type: ADME
[9] = Microsomal stability in human liver microsomes assessed as compound remaining at 5 uM measured after 60 mins in presence of NADPH by HPLC analysis; type: ADME, Microsome; details: read-out: Stability
[10] = Volume of distribution in Sprague-Dawley rat at 1 mg/kg, iv; type: ADME, organism-based; details: in vivo
[11] = AUC (0 to 24 hrs) in Sprague-Dawley rat at 5 mg/kg, po; type: ADME, organism-based; details: in vivo
[12] = Clearance in Sprague-Dawley rat at 1 mg/kg, iv; type: ADME, organism-based; details: in vivo
[13] = Oral bioavailability in Sprague-Dawley rat at 5 mg/kg; type: ADME, organism-based; details: in vivo
Rattus norvegicus = assay: Anti-diabetic activity in Sprague-Dawley rat assessed as reduction in AUC (0 to 2 hrs) at 3 mg/kg, po followed by oral administration of glucose measured for 2 hrs by OGTT assay relative to control; type: functional; parameters: scale not given: the % may be the effect or the level left
Cytochrome P450 3A4 = Cytochrome P450 3A4 (Homo sapiens, UniProt P08684); assay: Inhibition of CYP3A4 (unknown origin) using 7-benzyloxy-4-trifluoromethylcoumarin as substrate preincubated for 10 mins followed by addition of NADPH generating system measured after 30 mins by fluorescence based assay; type: ADME
[14] = Tmax in ICR mouse at 10 mg/kg, po; type: ADME, organism-based; details: in vivo
[15] = Microsomal stability in dog liver microsomes assessed as compound remaining at 5 uM measured after 60 mins in presence of NADPH by HPLC analysis; type: ADME, Canis lupus familiaris, Microsome; details: read-out: Stability
[16] = AUC (0 to 24 hrs) in ICR mouse at 1 mg/kg, iv; type: ADME, organism-based; details: in vivo
[17] = Half life in ICR mouse at 1 mg/kg, iv; type: ADME, organism-based; details: in vivo
Cytochrome P450 2C9 = Cytochrome P450 2C9 (Homo sapiens, UniProt P11712); assay: Inhibition of CYP2C9 (unknown origin) using 7-methoxy-4-trifluoromethylcoumarin as substrate preincubated for 10 mins followed by addition of NADPH generating system measured after 30 mins by fluorescence based assay; type: ADME
[18] = Microsomal stability in mouse liver microsomes assessed as compound remaining at 5 uM measured after 60 mins in presence of NADPH by HPLC analysis; type: ADME, Microsome; details: read-out: Stability
[19] = MRTlast in Sprague-Dawley rat at 1 mg/kg, iv; type: ADME, organism-based; details: in vivo
[20] = MRTlast in Sprague-Dawley rat at 5 mg/kg, po; type: ADME, organism-based; details: in vivo
[21] = Microsomal stability in rat liver microsomes assessed as compound remaining at 5 uM measured after 60 mins in presence of NADPH by HPLC analysis; type: ADME, Microsome; details: read-out: Stability
Mus musculus = assay: Anti-diabetic activity in C57BL mouse assessed as reduction in AUC (0 to 2 hrs) at 3 mg/kg, po followed by oral administration of glucose measured for 2 hrs by OGTT assay relative to control; type: functional; parameters: scale not given: the % may be the effect or the level left
[22] = Half life in ICR mouse at 10 mg/kg, po; type: ADME, organism-based; details: in vivo
[23] = Half life in Sprague-Dawley rat at 1 mg/kg, iv; type: ADME, organism-based; details: in vivo
[24] = MRTlast in ICR mouse at 10 mg/kg, po; type: ADME, organism-based; details: in vivo
[25] = Clearance in ICR mouse at 1 mg/kg, iv; type: ADME, organism-based; details: in vivo
[26] = AUC (0 to 24 hrs) in Sprague-Dawley rat at 1 mg/kg, iv; type: ADME, organism-based; details: in vivo
[27] = Oral bioavailability in ICR mouse at 10 mg/kg; type: ADME, organism-based; details: in vivo
[28] = MRTlast in ICR mouse at 1 mg/kg, iv; type: ADME, organism-based; details: in vivo

Cytochrome P450 2D6, sequence (P10635 whole entry): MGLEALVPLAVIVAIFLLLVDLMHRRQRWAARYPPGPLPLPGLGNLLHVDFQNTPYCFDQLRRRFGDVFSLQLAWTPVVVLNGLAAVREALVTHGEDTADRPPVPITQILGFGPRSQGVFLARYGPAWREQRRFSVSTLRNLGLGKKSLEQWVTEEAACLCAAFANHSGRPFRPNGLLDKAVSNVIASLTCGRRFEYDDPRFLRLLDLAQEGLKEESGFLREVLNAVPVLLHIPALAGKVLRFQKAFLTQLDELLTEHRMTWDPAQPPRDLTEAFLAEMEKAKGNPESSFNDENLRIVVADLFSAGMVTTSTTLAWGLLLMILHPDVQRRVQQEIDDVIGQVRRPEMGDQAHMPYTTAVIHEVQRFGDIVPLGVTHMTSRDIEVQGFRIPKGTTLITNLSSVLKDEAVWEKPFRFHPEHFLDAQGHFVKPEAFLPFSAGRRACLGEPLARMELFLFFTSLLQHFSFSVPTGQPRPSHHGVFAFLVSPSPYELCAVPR
Cytochrome P450 2C19, sequence (P33261 whole entry): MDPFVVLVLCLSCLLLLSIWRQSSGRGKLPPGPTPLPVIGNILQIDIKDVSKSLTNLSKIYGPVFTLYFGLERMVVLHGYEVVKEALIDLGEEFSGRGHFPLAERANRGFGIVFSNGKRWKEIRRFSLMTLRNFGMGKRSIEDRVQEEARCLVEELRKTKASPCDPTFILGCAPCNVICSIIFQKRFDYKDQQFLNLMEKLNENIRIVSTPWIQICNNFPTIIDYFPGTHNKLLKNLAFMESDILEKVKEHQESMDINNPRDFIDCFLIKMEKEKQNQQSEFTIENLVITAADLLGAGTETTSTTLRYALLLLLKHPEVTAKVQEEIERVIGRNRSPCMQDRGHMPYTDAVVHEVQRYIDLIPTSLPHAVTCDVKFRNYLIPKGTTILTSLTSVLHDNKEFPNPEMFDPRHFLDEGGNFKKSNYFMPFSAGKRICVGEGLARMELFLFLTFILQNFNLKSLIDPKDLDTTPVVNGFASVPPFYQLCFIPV
Cytochrome P450 3A4, sequence (P08684 whole entry): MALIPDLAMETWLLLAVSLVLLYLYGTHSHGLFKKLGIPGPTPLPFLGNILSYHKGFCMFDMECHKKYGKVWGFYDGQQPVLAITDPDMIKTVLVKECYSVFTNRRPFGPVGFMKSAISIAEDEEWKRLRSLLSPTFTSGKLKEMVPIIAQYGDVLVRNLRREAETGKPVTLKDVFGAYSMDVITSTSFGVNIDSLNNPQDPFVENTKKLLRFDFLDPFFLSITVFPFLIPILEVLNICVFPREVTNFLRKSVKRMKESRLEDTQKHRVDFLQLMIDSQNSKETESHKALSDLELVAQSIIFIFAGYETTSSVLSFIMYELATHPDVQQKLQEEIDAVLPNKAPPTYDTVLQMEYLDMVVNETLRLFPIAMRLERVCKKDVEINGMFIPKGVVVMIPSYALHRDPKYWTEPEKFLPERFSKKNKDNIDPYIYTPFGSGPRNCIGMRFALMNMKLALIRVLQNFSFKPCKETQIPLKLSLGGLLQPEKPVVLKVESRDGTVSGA
Cytochrome P450 2C9, sequence (P11712 whole entry): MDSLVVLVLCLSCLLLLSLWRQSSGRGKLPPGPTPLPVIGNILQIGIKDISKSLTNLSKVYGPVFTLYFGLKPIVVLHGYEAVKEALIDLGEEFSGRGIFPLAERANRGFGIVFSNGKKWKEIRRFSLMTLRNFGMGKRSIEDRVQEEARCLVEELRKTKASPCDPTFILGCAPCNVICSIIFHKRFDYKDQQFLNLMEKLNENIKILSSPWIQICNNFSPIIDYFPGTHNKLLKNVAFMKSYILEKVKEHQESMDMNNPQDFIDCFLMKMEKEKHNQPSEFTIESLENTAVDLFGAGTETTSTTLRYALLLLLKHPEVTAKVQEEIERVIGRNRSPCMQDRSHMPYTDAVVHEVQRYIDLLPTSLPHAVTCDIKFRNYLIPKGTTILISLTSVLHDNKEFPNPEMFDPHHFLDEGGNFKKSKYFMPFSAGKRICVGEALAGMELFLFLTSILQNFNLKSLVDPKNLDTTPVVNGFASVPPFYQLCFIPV

Structure (SMILES): CS(=O)(=O)c1ccc(-c2csc3c(OC4CCNCC4)ncnc23)c(F)c1
EC50 [1]: > 100 nM

Structure (SMILES): CC(C)c1noc(N2CCC(Oc3ncnc4c(-c5ccc(S(C)(=O)=O)cc5F)csc34)CC2)n1
Cmax [3]: 9130 ng/mL
Vd [4]: 1.2 L/kg
Cmax [5]: 1480 ng/mL
half-life [6]: 2.4 h
IC50 (Cytochrome P450 1A2): > 50000 nM
AUC(0-t) [7]: 32700 ng·h/mL
Tmax [8]: 1 h
IC50 (Cytochrome P450 2C19): 5550 nM
IC50 (Cytochrome P450 2D6): > 50000 nM
remaining at 1 h, 5 µM [9]: 35%
Vd [10]: 1.2 L/kg
AUC(0-t) [11]: 5720 ng·h/mL
clearance [12]: 5 mL/min/kg
bioavailability [13]: 61.5%
EC50 [2]: 22.8 nM
Activity (Rattus norvegicus): 15%
IC50 (Cytochrome P450 3A4): 3790 nM
Tmax [14]: 0.5 h
remaining at 1 h, 5 µM [15]: 62%
AUC(0-t) [16]: 2770 ng·h/mL
half-life [17]: 3.4 h
IC50 (Cytochrome P450 2C9): > 50000 nM
EC50 [1]: 6.3 nM
remaining at 1 h, 5 µM [18]: 38%
MRT last [19]: 3.6 h
MRT last [20]: 3.2 h
remaining at 1 h, 5 µM [21]: 48%
Activity (Mus musculus): 37.4%
half-life [22]: 2.2 h
half-life [23]: 2.8 h
MRT last [24]: 3.8 h
clearance [25]: 5 mL/min/kg
AUC(0-t) [26]: 1860 ng·h/mL
bioavailability [27]: > 100%
MRT last [28]: 3 h

Structure (SMILES): CS(=O)(=O)c1ccc(-c2csc3c(N4CCC(c5nc(C6CCCCC6)no5)CC4)ncnc23)cc1
EC50 [2]: 32.5 nM
EC50 [1]: 12.5 nM

Structure (SMILES): CS(=O)(=O)c1ccc(-c2csc3c(OC4CCN(c5nc(C6CC6)no5)CC4)ncnc23)cc1
EC50 [2]: 47 nM
EC50 [1]: 24.8 nM

Structure (SMILES): CN1CCC(Oc2ncnc3c(-c4ccc(S(C)(=O)=O)cc4F)csc23)CC1
EC50 [1]: > 100 nM

Structure (SMILES): CS(=O)(=O)c1ccc(-c2csc3c(OC4CCN(c5nc(C6CCCC6)no5)CC4)ncnc23)cc1
EC50 [2]: > 1000 nM
EC50 [1]: 5.6 nM

Structure (SMILES): CC(C)c1noc(N2CCC(Oc3ncnc4c(-c5ccc(S(C)(=O)=O)cc5)csc34)C2)n1 (configuration not stated)
EC50 [1]: 754 nM

Structure (SMILES): CC(C)(C)c1noc(N2CCC(Oc3ncnc4c(-c5ccc(S(C)(=O)=O)cc5F)csc34)CC2)n1
EC50 [1]: 3.6 nM

Structure (SMILES): CCc1cnc(N2CCC(Oc3ncnc4c(-c5ccc(S(C)(=O)=O)cc5)csc34)C2)nc1 (configuration not stated)
EC50 [1]: 74.8 nM

Structure (SMILES): CCCc1noc(N2CCC(Oc3ncnc4c(-c5ccc(S(C)(=O)=O)cc5F)csc34)CC2)n1
EC50 [1]: 2.1 nM

Structure (SMILES): CS(=O)(=O)c1ccc(-c2csc3c(N4CCC(c5nc(C6CCCC6)no5)CC4)ncnc23)cc1
EC50 [2]: 16 nM
remaining at 1 h, 5 µM [15]: 10%
EC50 [1]: 8.7 nM
remaining at 1 h, 5 µM [18]: 23%
remaining at 1 h, 5 µM [21]: 9%

Structure (SMILES): CS(=O)(=O)c1ccc(-c2csc3c(N4CCC(c5nc(C6CCCC6)no5)CC4)ncnc23)c(F)c1
EC50 [2]: 86.3 nM
EC50 [1]: 1.9 nM

Structure (SMILES): CS(=O)(=O)c1ccc(-c2csc3c(N4CCC(c5nc(C6CC6)no5)CC4)ncnc23)cc1
EC50 [2]: 16.8 nM
EC50 [1]: 23.9 nM

Structure (SMILES): CCc1cnc(N2CCC(c3nc(COc4ccc(-n5cnnn5)cc4)cs3)CC2)nc1 [MBX-2982]
EC50 [2]: 2 nM
Activity (Rattus norvegicus): 7.3%
EC50 [1]: 3.1 nM
Activity (Mus musculus): 29%

Next, values leading:

EC50 [1]: > 100 nM
Structure (SMILES): CC(C)(C)OC(=O)N1CCC(Nc2ncnc3c(-c4ccc(S(C)(=O)=O)cc4)csc23)CC1

EC50 [2]: 19.1 nM
EC50 [1]: 33.8 nM
Structure (SMILES): CN(c1ncnc2c(-c3ccc(S(C)(=O)=O)cc3)csc12)C1CCN(C(=O)OC(C)(C)C)CC1

EC50 [2]: 35.9 nM
EC50 [1]: 7.4 nM
Structure (SMILES): CCc1cnc(N2CCC(N(C)c3ncnc4c(-c5ccc(S(C)(=O)=O)cc5)csc34)CC2)nc1

EC50 [1]: > 100 nM
Structure (SMILES): CCN(c1ncnc2c(-c3ccc(S(C)(=O)=O)cc3)csc12)C1CCN(c2ccc(C(F)(F)F)cn2)CC1

EC50 [1]: > 100 nM
Structure (SMILES): CS(=O)(=O)c1ccc(-c2csc3c(N4CCCCC4)ncnc23)cc1

EC50 [2]: 153 nM
EC50 [1]: 15 nM
Structure (SMILES): CCc1cnc(N2CCC(N(CC)c3ncnc4c(-c5ccc(S(C)(=O)=O)cc5)csc34)CC2)nc1

EC50 [1]: > 100 nM
Structure (SMILES): CCN(c1ncnc2c(-c3ccc(S(C)(=O)=O)cc3)csc12)C1CCN(C(=O)OC(C)(C)C)CC1

EC50 [1]: > 100 nM
Structure (SMILES): CS(=O)(=O)c1ccc(-c2csc3c(N4CCCC4)ncnc23)cc1

EC50 [1]: 1.4 nM
Structure (SMILES): CC(C)(C)OC(=O)N1CCC(Oc2ncnc3c(-c4ccc(S(C)(=O)=O)cc4F)csc23)CC1

IC50 (Cytochrome P450 1A2): > 50000 nM
IC50 (Cytochrome P450 2C19): 3680 nM
IC50 (Cytochrome P450 2D6): > 50000 nM
remaining at 1 h, 5 µM [9]: 13%
EC50 [2]: 11.5 nM
IC50 (Cytochrome P450 3A4): 12000 nM
remaining at 1 h, 5 µM [15]: 6%
IC50 (Cytochrome P450 2C9): < 620 nM
EC50 [1]: 11.7 nM
remaining at 1 h, 5 µM [18]: 21%
Structure (SMILES): CC(C)c1noc(C2CCN(c3ncnc4c(-c5ccc(S(C)(=O)=O)cc5)csc34)CC2)n1
